In patent US20220169639A1 (priority 2018, published 2022) one finds IC50 data, which are given here for 36 compounds.

The subject of this assay is HBeAg (surrogate marker for cccDNA) in HepDES19 cells. The experiment in a line: Engineered HepDES19 primary screen assay (HBeAg ELISA). To be noted: Hepatitis B virus, 120 h, HBeAg in culture supernatant, 5 days incubation, read-out: IC50 (HepDES19 primary screen assay, inhibition of extracellular HBeAg level). Type of assay: cell-based, HBV. The source says: The assay was employed to screen for cccDNA inhibitors. HepDES19 is a cccDNA-producing cell line. In this cell line, HBeAg in the cell culture supernatant as surrogate marker, as HBeAg production depends on cccDNA level and activity. HepDES19 is an engineered cell line which contains a 1.1 unit length HBV genome, and pgRNA transcription from the transgene is controlled by Tetracycline (Tet). In the absence of Tet, pgRNA transcription will be induced, but HBV e antigen (HBeAg) could not be produced from this pgRNA due to very short leader sequence before the HBeAg start codon and the start codon is disrupted. Only after cccDNA is formed, the missing leader sequence and start codon mutation would be restored from the 3′-terminal redundancy of pgRNA, and then HBeAg could be synthesized. Therefore, HBeAg could be used as a surrogate marker for cccDNA (Zhou, T. et al., Antiviral Res. (2006), 72(2), 116-124; Guo, H. et al., J. Virol. (2007), 81(22), 12472-12484).
HepDES19 cells were seeded at 2×10^6 cells per T150 flask and cultured with the culture medium (Dulbecco's Modified Eagle Medium: Nutrient Mixture F-12 [DMEM-F12, Gibco Cat. 11320-82], 10% Fetal Bovine Serum [FBS, Clontech Cat. 631101], 0.1 mM Non-Essential Amino Acids Solution [NEAA, Gibco Cat. 11140-050], 50 μg/mL Penicillin-Streptomycin [PS, Invitrogen Cat. 15140-163], 500 μg/mL Geneticin [G418, Invitrogen Cat. 10131-027]) containing 3 μg/mL Tet (Sigma, Cat. 87128) for 5 days. Cells were then seeded at 4×10^6 cells per T150 in the same culture medium as described above in the absence of Tet for 8 days. Cells were then harvested and frozen at density of 2×10^6 cells per mL. For compound testing, the frozen cells were thawed and seeded into 96-well plates at a density of 6×10^4 cells per well. At 24 hours after seeding, half log serial dilutions of compounds made with Dimethyl sulfoxide (DMSO, Sigma, Cat. D2650) were further diluted with the same culture medium as described above before they were added to the cells to reach desired final compound concentrations and 1% DMSO concentration. Plates were then incubated at 37° C. for another 5 days before measurement of HBeAg level and cell viability. Intracellular HBeAg level were measured with enzyme-linked immunosorbent assay (ELISA) kit (Shanghai Kehua Diagnostic Medical Products Co., Ltd). Cell viability was assessed using Cell Counting Kit-8 (DonJindo, Cat. CK04-20). IC50 values were derived from the dose-response curve using 4 parameter logistic curve fit method.
The compounds of the present invention were tested for their capacity to inhibit extracellular HBeAg level as described herein.

The term IC50 denotes the concentration at which inhibition is half-maximal. In the case of `CS(=O)(=O)NC(=O)C1CN(CCOc2cc(C(F)(F)F)ccc2-c2cc(=O)c3cccc(Cl)c3o2)CCO1` (stereo not drawn) [Example 068, 4-[2-[2-(8-chloro-4-oxo-chromen-2-yl)-5-(trifluoromethyl)phenoxy]ethyl]-N-methylsulfonyl-morpholine-2-carboxamide], the IC50 was found to be 5.51 µM. To `CS(=O)(=O)NC(=O)[C@H]1CCN(CCOc2cc(Br)ccc2-c2cc(=O)c3cccc(Cl)c3o2)C1` [Example 069] belongs 1.77 µM.

For the compound `CS(=O)(=O)NC(=O)[C@@H]1CCN(CCOc2cc(C(F)(F)F)ccc2-c2cc(=O)c3cccc(Cl)c3o2)C1` [Example 070, (3R)-1-[2-[2-(8-chloro-4-oxo-chromen-2-yl)-5-(trifluoromethyl)phenoxy]ethyl]-N-methylsulfonyl-pyrrolidine-3-carboxamide], the 50% inhibitory concentration (IC50) was 1.01 µM. Regarding `CS(=O)(=O)NC(=O)[C@H]1CCN(CCOc2cc(C(F)(F)F)ccc2-c2cc(=O)c3cccc(Cl)c3o2)C1` [Example 071, (3S)-1-[2-[2-(8-chloro-4-oxo-chromen-2-yl)-5-(trifluoromethyl)phenoxy]ethyl]-N-methylsulfonyl-pyrrolidine-3-carboxamide], the half-maximal inhibitory concentration (IC50) turned out to be 1.03 µM. To `O=C(NS(=O)(=O)C1CC1)C1CCCN1CCOc1cc(C(F)(F)F)ccc1-c1cc(=O)c2cccc(Cl)c2o1` (stereo not drawn) [Example 072, 1-[2-[2-(8-chloro-4-oxo-chromen-2-yl)-5-(trifluoromethyl)phenoxy]ethyl]-N-cyclopropylsulfonyl-pyrrolidine-2-carboxamide] belongs 2.89 µM; to `CS(=O)(=O)NC(=O)C1CCCN1CCOc1cc(Br)ccc1-c1cc(=O)c2cccc(Cl)c2o1` (stereo not drawn) [Example 074, 1-[2-[5-bromo-2-(8-chloro-4-oxo-chromen-2-yl)phenoxy]ethyl]-N-methylsulfonyl-pyrrolidine-2-carboxamide], 1.03 µM; to `O=c1cc(-c2ccc(C(F)(F)F)cc2OCCCNC2CCS(=O)(=O)CC2)oc2c(Cl)cccc12` [Example 078, 8-chloro-2-[2-[3-[(1,1-dioxothian-4-yl)amino]propoxy]-4-(trifluoromethyl)phenyl]chromen-4-one], 7.8 µM. To `CS(=O)(=O)CCNCCCOc1cc(C(F)(F)F)ccc1-c1cc(=O)c2cccc(Cl)c2o1` [Example 079, 8-chloro-2-[2-[3-(2-methylsulfonylethylamino)propoxy]-4-(trifluoromethyl)phenyl]chromen-4-one] belongs 0.78 µM; to `CS(=O)(=O)N1CCN(CCCOc2cc(C(F)(F)F)ccc2-c2cc(=O)c3cccc(Cl)c3o2)CC1` [Example 081, 8-chloro-2-[2-[3-(4-methylsulfonylpiperazin-1-yl)propoxy]-4-(trifluoromethyl)phenyl]chromen-4-one], 7.11 µM. On to `NC(=O)C1CCN(CCOc2cc(Br)ccc2-c2cc(=O)c3cccc(Cl)c3o2)C1` (stereo not drawn) [Example 083, 1-[2-[5-bromo-2-(8-chloro-4-oxo-chromen-2-yl)phenoxy]ethyl]pyrrolidine-3-carboxamide], for which the half-inhibitory concentration (IC50) stood at 0.56 µM. Then `NC(=O)C1CSCCN1CCOc1cc(Br)ccc1-c1cc(=O)c2cccc(Cl)c2o1` (stereo not drawn) [Example 085, 4-[2-[5-bromo-2-(8-chloro-4-oxo-chromen-2-yl)phenoxy]ethyl]thiomorpholine-3-carboxamide], with 1.08 µM; and `O=c1cc(-c2ccc(C(F)(F)F)cc2OCC(O)CNS(=O)(=O)C2CC2)oc2c(Cl)cccc12` (stereo not drawn) [Example 086, N-[3-[2-(8-chloro-4-oxo-chromen-2-yl)-5-(trifluoromethyl)phenoxy]-2-hydroxy-propyl]cyclopropanesulfonamide], with 3.22 µM; and `O=c1cc(-c2ccc(Br)cc2OCCOCCN2CCOCC2)oc2c(Cl)cccc12` [Example 090, 2-[4-bromo-2-[2-(2-morpholinoethoxy)ethoxy]phenyl]-8-chloro-chromen-4-one], with 1.3 µM. In the case of `Cc1ccc(-c2cc(=O)c3cccc(Cl)c3o2)c(OCCN2CCNC2=O)c1` [Example 091, 1-[2-[2-(8-chloro-4-oxo-chromen-2-yl)-5-methyl-phenoxy]ethyl]imidazolidin-2-one], the half-maximal inhibitory concentration (IC50) was 2.83 µM.

On to `Cc1ccc(-c2cc(=O)c3cccc(Cl)c3o2)c(OCCN2CCN(C)C2=O)c1` [Example 092, 1-[2-[2-(8-chloro-4-oxo-chromen-2-yl)-5-methyl-phenoxy]ethyl]-3-methyl-imidazolidin-2-one], for which the IC50 was found to be 0.22 µM. Then `CS(=N)(=O)C1CCN(CCOc2cc(C(F)(F)F)ccc2-c2cc(=O)c3cccc(Cl)c3o2)CC1` (stereo not drawn) [Example 094, 8-chloro-2-[2-[2-[4-(methylsulfonimidoyl)-1-piperidyl]ethoxy]-4-(trifluoromethyl)phenyl]chromen-4-one], with 9.79 µM; and `CCOC(=O)C(=O)NCCCOc1cc(C)ccc1-c1cc(=O)c2cccc(Cl)c2o1` [Example 095, ethyl 2-[3-[2-(8-chloro-4-oxo-chromen-2-yl)-5-methyl-phenoxy]propylamino]-2-oxo-acetate], with 9.3 µM; and `O=c1cc(-c2ccc(C(F)(F)F)cc2OCCNS(=O)(=O)C2CC2)oc2c(Cl)cccc12` [Example 096], with 0.13 µM. To `O=c1cc(-c2ccc(C(F)(F)F)cc2OCCCNS(=O)(=O)c2ccccc2)oc2c(Cl)cccc12` [Example 097] belongs 1.16 µM; to `CCC(=O)NCCCOc1cc(C(F)(F)F)ccc1-c1cc(=O)c2cccc(Cl)c2o1` [Example 099], 6.47 µM.

Consider `CCOC(=O)C(=O)NCCCOc1cc(C(F)(F)F)ccc1-c1cc(=O)c2cccc(Cl)c2o1` [Example 100, ethyl 2-[3-[2-(8-chloro-4-oxo-chromen-2-yl)-5-(trifluoromethyl)phenoxy]propylamino]-2-oxo-acetate], for which the IC50 was determined as 3.84 µM.

With `CCOC(=O)C(=O)NCCOc1cc(OC)c(Br)cc1-c1cc(=O)c2cccc(Cl)c2o1` [Example 102], the half-maximal inhibitory concentration (IC50) is 2.91 µM.

Consider `CCOC(=O)C(=O)NCCOc1cc(C)ccc1-c1cc(=O)c2cc(OC)cc(Cl)c2o1` [Example 103], for which the concentration for half-maximal inhibition (IC50) stood at 3.66 µM. To `CCOC(=O)C(=O)NCCOc1cc(OC)ccc1-c1cc(=O)c2cccc(Cl)c2o1` [Example 104] belongs 9.65 µM; to `COC(=O)NCCOc1cc(Br)ccc1-c1cc(=O)c2cccc(Cl)c2o1` [Example 105], 1.9 µM; to `CCOC(=O)NCCOc1cc(Br)ccc1-c1cc(=O)c2cccc(Cl)c2o1` [Example 106], 1.1 µM. To `CNS(=O)(=O)NCCCOc1cc(C)ccc1-c1cc(=O)c2cccc(Cl)c2o1` [Example 107] belongs 2.71 µM; to `O=c1cc(-c2ccc(Br)cc2OC2CCN(S(=O)(=O)C3CC3)CC2)oc2c(Cl)cccc12` [Example 108], 1.14 µM; to `CCOC(=O)C(=O)NCCOc1cc(C)ccc1-c1cc(=O)c2cccc(Cl)c2o1` [Example 109, ethyl 2-[2-[2-(8-chloro-4-oxo-chromen-2-yl)-5-methyl-phenoxy]ethylamino]-2-oxo-acetate], 4.11 µM. To `O=C(O)C(=O)NC1(COc2cc(C(F)(F)F)ccc2-c2cc(=O)c3cccc(Cl)c3o2)CC1` [Example 110, 2-[[1-[[2-(8-chloro-4-oxo-chromen-2-yl)-5-(trifluoromethyl)phenoxy]methyl]cyclopropyl]amino]-2-oxo-acetic acid] belongs 3.76 µM; to `COc1ccc(-c2cc(=O)c3cccc(Cl)c3o2)c(OCCNC(=O)C(=O)O)c1` [Example 111, 2-[2-[2-(8-chloro-4-oxo-chromen-2-yl)-5-methoxy-phenoxy]ethylamino]-2-oxo-acetic acid], 0.18 µM; to `Cc1cc(F)c(-c2cc(=O)c3cccc(Cl)c3o2)c(OCCNC(=O)C(=O)O)c1` [Example 112], 0.49 µM. With `O=C(O)C(=O)NCCOc1cc(Br)ccc1-c1cc(=O)c2cccc(Cl)c2o1` [Example 113], the IC50 worked out at 0.49 µM.

As to `COc1cc(OCCNC(=O)C(=O)O)c(-c2cc(=O)c3cccc(Cl)c3o2)cc1OC` [Example 114], the IC50 came out at 0.87 µM. To `CC(C)(COc1cc(C(F)(F)F)ccc1-c1cc(=O)c2cccc(Cl)c2o1)NC(=O)C(=O)O` [Example 115] belongs 1.04 µM. Then `COc1cc(C)cc(OCCNC(=O)C(=O)O)c1-c1cc(=O)c2cccc(Cl)c2o1` [Example 118], with 1.98 µM.
